Data published in ChEMBL document CHEMBL1151793, “Synthesis, biological active molecular design, and molecular docking study of novel deazaflavin-cholestane hybrid compounds” (Bioorg Med Chem, 2008).
Converted amounts (≈) assume the structure as drawn.

Key:
KB = experiment: Antitumor activity against human KB cells by MTT assay; assay type: functional, cell-based
CCRF-HSB-2 = experiment: Antitumor activity against human CCRF-HSB2 cells by MTT assay; assay type: functional, cell-based

Compound	IC50 (KB) [µg/mL]	IC50 (CCRF-HSB-2) [µg/mL]
CCCCCCCC[C@H]1CC[C@H]2[C@@H]3CCC4=Cc5c(cc6c(=O)[nH]c(=O)nc-6n5-c5ccc(F)cc5)C[C@]4(C)[C@H]3CC[C@]12C	2.1 (≈ 3.51 µM)	2.7 (≈ 4.52 µM)
CCCCCCCC[C@H]1CC[C@H]2[C@@H]3CCC4=Cc5c(cc6c(=O)[nH]c(=O)nc-6n5-c5ccc(C)c(C)c5)C[C@]4(C)[C@H]3CC[C@]12C	7.8 (≈ 12.8 µM)	4.7 (≈ 7.73 µM)
CCCCCCCC[C@H]1CC[C@H]2[C@@H]3CCC4=Cc5c(cc6c(=O)n(C)c(=O)nc-6n5-c5cccc(C)c5)C[C@]4(C)[C@H]3CC[C@]12C	7.4 (≈ 12.2 µM)	5.4 (≈ 8.88 µM)
CCCCCCCC[C@H]1CC[C@H]2[C@@H]3CCC4=Cc5c(cc6c(=O)n(C)c(=O)nc-6n5C)C[C@]4(C)[C@H]3CC[C@]12C	40.9 (≈ 76.9 µM)	36.8 (≈ 69.2 µM)
CCCCCCCC[C@H]1CC[C@H]2[C@@H]3CCC4=Cc5c(cc6c(=O)[nH]c(=O)nc-6n5CCCC)C[C@]4(C)[C@H]3CC[C@]12C	5.7 (≈ 10.2 µM)	4.3 (≈ 7.68 µM)
CCCCCCCC[C@H]1CC[C@H]2[C@@H]3CCC4=Cc5c(cc6c(=O)n(-c7ccccc7)c(=O)nc-6n5C)C[C@]4(C)[C@H]3CC[C@]12C	7.4 (≈ 12.5 µM)	5.5 (≈ 9.26 µM)
CCCCCCCC[C@H]1CC[C@H]2[C@@H]3CCC4=Cc5c(cc6c(=O)n(-c7ccccc7)c(=O)nc-6n5-c5ccc(C)c(C)c5)C[C@]4(C)[C@H]3CC[C@]12C	9.1 (≈ 13.3 µM)	7.7 (≈ 11.3 µM)
CCCCCCCC[C@H]1CC[C@H]2[C@@H]3CCC4=Cc5c(cc6c(=O)n(C)c(=O)nc-6n5-c5ccc(OC)cc5)C[C@]4(C)[C@H]3CC[C@]12C	7.4 (≈ 11.9 µM)	4.5 (≈ 7.21 µM)
CCCCCCCC[C@H]1CC[C@H]2[C@@H]3CCC4=Cc5c(cc6c(=O)[nH]c(=O)nc-6n5C)C[C@]4(C)[C@H]3CC[C@]12C	8.4 (≈ 16.2 µM)	8.8 (≈ 17 µM)
CCCCCCCC[C@H]1CC[C@H]2[C@@H]3CCC4=Cc5c(cc6c(=O)n(-c7ccccc7)c(=O)nc-6n5-c5ccccc5)C[C@]4(C)[C@H]3CC[C@]12C	1.9 (≈ 2.9 µM)	2.4 (≈ 3.66 µM)
CCCCCCCC[C@H]1CC[C@H]2[C@@H]3CCC4=Cc5c(cc6c(=O)[nH]c(=O)nc-6n5-c5cccc(C)c5)C[C@]4(C)[C@H]3CC[C@]12C	4.4 (≈ 7.41 µM)	2.7 (≈ 4.55 µM)
CCCCCCCC[C@H]1CC[C@H]2[C@@H]3CCC4=Cc5c(cc6c(=O)n(C)c(=O)nc-6n5-c5ccc(C)c(C)c5)C[C@]4(C)[C@H]3CC[C@]12C	8.3 (≈ 13.3 µM)	5.6 (≈ 9 µM)
CCCCCCCC[C@H]1CC[C@H]2[C@@H]3CCC4=Cc5c(cc6c(=O)n(-c7ccccc7)c(=O)nc-6n5-c5cccc(C)c5)C[C@]4(C)[C@H]3CC[C@]12C	8 (≈ 11.9 µM)	5.4 (≈ 8.06 µM)
CCCCCCCC[C@H]1CC[C@H]2[C@@H]3CCC4=Cc5c(cc6c(=O)n(C)c(=O)nc-6n5-c5ccc(Br)cc5)C[C@]4(C)[C@H]3CC[C@]12C	14.2 (≈ 21.1 µM)	14 (≈ 20.8 µM)
CCCCCCCC[C@H]1CC[C@H]2[C@@H]3CCC4=Cc5c(cc6c(=O)n(C)c(=O)nc-6n5CCCC)C[C@]4(C)[C@H]3CC[C@]12C	7.5 (≈ 13.1 µM)	10 (≈ 17.4 µM)
CCCCCCCC[C@H]1CC[C@H]2[C@@H]3CCC4=Cc5c(cc6c(=O)[nH]c(=O)nc-6n5-c5ccc(Cl)cc5)C[C@]4(C)[C@H]3CC[C@]12C	1.8 (≈ 2.93 µM)	2.7 (≈ 4.4 µM)
CCCCCCCC[C@H]1CC[C@H]2[C@@H]3CCC4=Cc5c(cc6c(=O)n(-c7ccccc7)c(=O)nc-6n5-c5ccc(OC)cc5)C[C@]4(C)[C@H]3CC[C@]12C	8.7 (≈ 12.7 µM)	7.5 (≈ 10.9 µM)
CCCCCCCC[C@H]1CC[C@H]2[C@@H]3CCC4=Cc5c(cc6c(=O)n(C)c(=O)nc-6n5CC)C[C@]4(C)[C@H]3CC[C@]12C	> 100	> 100
CCCCCCCC[C@H]1CC[C@H]2[C@@H]3CCC4=Cc5c(cc6c(=O)n(-c7ccccc7)c(=O)nc-6n5-c5ccc(Cl)cc5)C[C@]4(C)[C@H]3CC[C@]12C	9.3 (≈ 13.5 µM)	9 (≈ 13 µM)
CCCCCCCC[C@H]1CC[C@H]2[C@@H]3CCC4=Cc5c(cc6c(=O)n(C)c(=O)nc-6n5-c5ccc(F)cc5)C[C@]4(C)[C@H]3CC[C@]12C	8.4 (≈ 13.7 µM)	6.9 (≈ 11.3 µM)
CCCCCCCC[C@H]1CC[C@H]2[C@@H]3CCC4=Cc5c(cc6c(=O)n(-c7ccccc7)c(=O)nc-6n5-c5ccc(F)cc5)C[C@]4(C)[C@H]3CC[C@]12C	8.4 (≈ 12.5 µM)	5.5 (≈ 8.16 µM)
CCCCCCCC[C@H]1CC[C@H]2[C@@H]3CCC4=Cc5c(cc6c(=O)[nH]c(=O)nc-6n5-c5ccc(OC)cc5)C[C@]4(C)[C@H]3CC[C@]12C	1.7 (≈ 2.79 µM)	2.1 (≈ 3.44 µM)
CCCCCCCC[C@H]1CC[C@H]2[C@@H]3CCC4=Cc5c(cc6c(=O)[nH]c(=O)nc-6n5CC)C[C@]4(C)[C@H]3CC[C@]12C	40.3 (≈ 75.8 µM)	37.9 (≈ 71.3 µM)
CCCCCCCC[C@H]1CC[C@H]2[C@@H]3CCC4=Cc5c(cc6c(=O)[nH]c(=O)nc-6n5-c5ccccc5)C[C@]4(C)[C@H]3CC[C@]12C	7.9 (≈ 13.6 µM)	5.4 (≈ 9.31 µM)
CCCCCCCC[C@H]1CC[C@H]2[C@@H]3CCC4=Cc5c(cc6c(=O)n(C)c(=O)nc-6n5-c5ccccc5)C[C@]4(C)[C@H]3CC[C@]12C	7.6 (≈ 12.8 µM)	6.2 (≈ 10.4 µM)
CCCCCCCC[C@H]1CC[C@H]2[C@@H]3CCC4=Cc5c(cc6c(=O)n(C)c(=O)nc-6n5-c5ccc(Cl)cc5)C[C@]4(C)[C@H]3CC[C@]12C	9.2 (≈ 14.6 µM)	7.6 (≈ 12.1 µM)
Nc1ccn([C@@H]2O[C@H](CO)[C@@H](O)[C@@H]2O)c(=O)n1 [CYTARABINE]	0.73 (≈ 3 µM)	–
